The text below walks through data of patent EP4737445A1, “NOVEL SATURATED HETEROCYCLE-SUBSTITUTED HETEROARYL-CARBONOHYDRAZONOYL DICYANIDE COMPOUND AND USE THEREOF” (Korea Institute of Science and Technology, priority 2023, dated 2025).

The target of one data set is T1, Tau (Homo sapiens, UniProt P10636).
T1 construct: BiFC fluorescent-protein fragments (two complementary halves on two tau copies); expressed in transfected cells
The data set can be described thus: Tau aggregation inhibition in Tau-BiFC cell model (Forskolin-induced). Type of data set: cell-based. The gist of the method: (§1)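 Tau-BiFC cells were co-treated with compound (1, 3, 10 µM for screening; 0.03–30 µM for IC50) and 30 µM Forskolin for 48 h. BiFC fluorescence was normalised to the Forskolin-only window for aggregation; viability came from Hoechst-stained nuclei counts relative to Forskolin-only (100%). IC50 was derived by nonlinear regression.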

Another data set deals with Tau-BiFC cells. The data set can be described thus: Cell viability (stained nuclei count) in Tau-BiFC cells. Type of data set: cell-based. Particulars: @10 µM; Tau-BiFC cell line; Forskolin-only group = 100%. The gist of the method:
as §1

Data set [1] in a line: Liver microsomal stability, human. Type of data set: in vitro ADME. The settings on record: 1 µM compound; 0.5 mg/mL microsomes; NADPH; 30 minutes at 37°C. As to the method:
(§2) Liver microsomal stability by the compounds prepared according to Examples 1 to 46 was confirmed. Specifically, four types of liver microsomes (human, dog, rat, and mouse each at 0.5 mg/mL), 0.1 M phosphate buffer solution (pH 7.4), and the compounds at 1 µM concentration were added and pre-incubated at 37°C for 5 minutes, and then NADPH generation system solution was added and incubated at 37°C for an additional 30 minutes. Thereafter, an acetonitrile solution containing an internal standard (chloropropamide) was added to terminate the reaction, and after centrifugation for 5 minutes (14,000 rpm, 4°C), the supernatant was injected into an LC-MS/MS system to analyze the substrate drug, thereby evaluating the metabolic stability of 8 compounds.
(§3) The amount of remaining substrate through the reaction was analyzed using a Shimadzu Nexera XR system and TSQ vantage (Thermo). A Kinetex XB-C18 (2.1 × 100 mm, 2.6 µm, particle size; Phenomenex, USA) was used as the HPLC column, and (A) distilled water containing 0.1% formic acid and (B) acetonitrile containing 0.1% formic acid were used as mobile phases. Analyst software (version 1.6.3) and Xcalibur (version 1.6.1) were used for data analysis. The calculated results are shown in Table 5 below: Liver microsomal stability data of novel compounds from […] (human, rat, and mouse).

Data set [2] is described as follows: Liver microsomal stability, rat. The class given is in vitro ADME. The settings on record: 1 µM compound; 0.5 mg/mL microsomes; NADPH; 30 minutes at 37°C. As to the method:
as §2, §3

The target of another data set is T2, CYP2D6 (Homo sapiens, UniProt P10635).
T2 construct: human liver microsomes (0.25 mg/mL); from tissue; host or cells: human liver microsomes
The data set can be described thus: CYP isoenzyme activity inhibition in human liver microsomes, CYP2D6. The class given is in vitro ADME. The settings on record: 10 µM compound; human liver microsomes 0.25 mg/mL; relative to control without compound. As to the method:
(§4) The CYP isoenzyme activity inhibitory effect by the compounds prepared according to Examples 1 to 46 was confirmed. Specifically, human liver microsomes (0.25 mg/mL), 0.1 M phosphate buffer solution (pH 7.4), a substrate drug cocktail of five drug metabolizing enzymes (Phenacetin 50 µM, Diclofenac 10 µM, S-mephenytoin 100 µM, Dextromethorphan 5 µM, and Midazolam 2.5 µM), and the compounds were added at concentrations of 0 or 10 µM, respectively, and pre-incubated at 37°C for 5 minutes, and then NADPH generation system solution was added and incubated at 37°C for an additional 15 minutes. Thereafter, an acetonitrile solution containing an internal standard (Terfenadine) was added to terminate the reaction, and after centrifugation for 5 minutes (14,000 rpm, 4°C), the supernatant was injected into an LC-MS/MS system to simultaneously analyze the metabolites of the substrate drugs, thereby evaluating the drug metabolizing enzyme inhibitory activity.
(§5) The metabolites of each CYP isoenzyme marker drug generated through the reaction were analyzed using a Shimadzu Nexera XR system and TSQ vantage (Thermo). A Kinetex C18 (2.1 × 100 mm, 2.6 µm, particle size; Phenomenex, USA) was used as the HPLC column, and (A) distilled water containing 0.1% formic acid and (B) acetonitrile containing 0.1% formic acid were used as mobile phases, and a gradient program as shown in Table 6 below was applied.
(§6) The generated metabolites were quantified using MRM (Multiple Reaction Monitoring) quantitative mode, and Xcalibur (version 1.6.1) was used for data analysis. To show the CYP isoenzyme activity inhibitory effect of the novel compounds prepared according to the Examples of the disclosure, the % activity of CYP isoenzymes relative to the control group without compound addition is shown in Table 6 below. Additionally, to confirm the difference in effect according to substituents, Comparative Compounds 1 and 5, which are two compounds that share a similar parent nucleus structure with Compounds 1 to 46 of the disclosure while Cy is substituted with aromatic heteroaryl instead of saturated heterocyclyl, were selected as comparative compounds and their activities are shown together.

The target of another data set is T3, CYP3A4 (Homo sapiens, UniProt P08684).
T3 construct: human liver microsomes (0.25 mg/mL); from tissue; host or cells: human liver microsomes
The data set can be described thus: CYP isoenzyme activity inhibition in human liver microsomes, CYP3A4. Type of data set: in vitro ADME. Particulars: 10 µM compound; human liver microsomes 0.25 mg/mL; relative to control without compound. As to the method:
as §4, §5, §6

T2 sequence (P10635 whole entry): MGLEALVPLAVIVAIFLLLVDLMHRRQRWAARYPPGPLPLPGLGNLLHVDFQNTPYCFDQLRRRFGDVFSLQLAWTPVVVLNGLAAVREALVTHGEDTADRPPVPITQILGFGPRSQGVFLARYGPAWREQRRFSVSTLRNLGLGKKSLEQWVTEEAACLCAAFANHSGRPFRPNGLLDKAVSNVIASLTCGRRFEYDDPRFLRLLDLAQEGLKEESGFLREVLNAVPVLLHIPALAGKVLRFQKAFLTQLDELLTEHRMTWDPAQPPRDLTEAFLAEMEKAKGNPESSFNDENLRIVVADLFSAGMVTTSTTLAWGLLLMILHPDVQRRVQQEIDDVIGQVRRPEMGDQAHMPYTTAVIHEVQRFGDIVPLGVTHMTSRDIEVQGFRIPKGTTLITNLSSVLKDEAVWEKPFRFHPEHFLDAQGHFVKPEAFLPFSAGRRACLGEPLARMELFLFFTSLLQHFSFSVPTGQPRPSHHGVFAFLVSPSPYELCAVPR
T3 sequence (P08684 whole entry): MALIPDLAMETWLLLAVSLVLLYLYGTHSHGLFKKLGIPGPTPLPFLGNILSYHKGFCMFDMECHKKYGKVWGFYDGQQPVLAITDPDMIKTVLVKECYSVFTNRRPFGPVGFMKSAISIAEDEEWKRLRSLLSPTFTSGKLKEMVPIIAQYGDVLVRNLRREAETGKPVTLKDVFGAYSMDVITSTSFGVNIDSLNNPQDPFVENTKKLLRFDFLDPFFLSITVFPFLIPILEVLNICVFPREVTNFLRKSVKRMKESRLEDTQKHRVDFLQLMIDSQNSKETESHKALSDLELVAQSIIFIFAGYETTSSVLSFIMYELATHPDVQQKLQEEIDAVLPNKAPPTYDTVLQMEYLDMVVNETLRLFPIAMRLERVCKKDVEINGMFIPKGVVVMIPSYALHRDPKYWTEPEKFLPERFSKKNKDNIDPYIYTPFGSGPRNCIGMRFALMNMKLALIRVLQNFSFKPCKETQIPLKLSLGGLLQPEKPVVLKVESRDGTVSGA
T1 sequence (P10636 1-441 isoform P10636-8): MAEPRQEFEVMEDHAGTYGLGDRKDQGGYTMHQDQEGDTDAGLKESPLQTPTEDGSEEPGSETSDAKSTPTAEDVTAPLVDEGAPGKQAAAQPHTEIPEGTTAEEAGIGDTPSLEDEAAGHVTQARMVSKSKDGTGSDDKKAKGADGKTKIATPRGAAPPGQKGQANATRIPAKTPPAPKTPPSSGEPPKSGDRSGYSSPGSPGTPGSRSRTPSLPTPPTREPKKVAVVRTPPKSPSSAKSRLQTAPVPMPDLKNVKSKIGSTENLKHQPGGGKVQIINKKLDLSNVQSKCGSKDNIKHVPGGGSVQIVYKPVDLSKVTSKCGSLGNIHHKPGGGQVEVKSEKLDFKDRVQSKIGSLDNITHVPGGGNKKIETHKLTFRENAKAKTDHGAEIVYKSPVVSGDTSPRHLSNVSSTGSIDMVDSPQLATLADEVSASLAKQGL

On Tau, `N#CC(C#N)=NNc1ccc2nc(N3C4CCC3COC4)sc2c1` [Compound 11, (2-(3-oxa-8-azabicyclo[3.2.1]octan-8-yl)benzo[d]thiazol-6-yl)carbonohydrazonoyl dicyanide] gave an IC50 of 32 nM. Further, the “Cell viability (% @10µM)” value in the data set on Tau-BiFC cells came to 100%. Further, in data set [1], the “Human microsomes (% remaining)” value is on record as 81.3 % remaining. Further, in data set [2], the “Rat microsomes (% remaining)” value stood at 73.9 % remaining. Besides, at CYP2D6, the “CYP2D6 (% activity)” value stood at 98.6 % activity. The “CYP3A4 (% activity)” value at CYP3A4 was 78.4 % activity.
With `CC1CN(c2nc3ccc(NN=C(C#N)C#N)cc3s2)CCO1` (stereo not drawn) [Compound 12, (2-(2-methylmorpholino)benzo[d]thiazol-6-yl)carbonohydrazonoyl dicyanide], half-maximal inhibition at Tau (IC50) required 32 nM. Also, the “Cell viability (% @10µM)” value with Tau-BiFC cells was 102%. Moreover, the “Human microsomes (% remaining)” value in data set [1] was 62.7 % remaining. For the same molecule, the “Rat microsomes (% remaining)” value in data set [2] is listed as 70.1 % remaining. For the same molecule, the “CYP2D6 (% activity)” value on CYP2D6 was found to be 94.8 % activity. Further, the “CYP3A4 (% activity)” value on CYP3A4 was 78.9 % activity.
On Tau, `CC1COCCN1c1nc2ccc(NN=C(C#N)C#N)cc2s1` (stereo not drawn) [Compound 13, (2-(3-methylmorpholino)benzo[d]thiazol-6-yl)carbonohydrazonoyl dicyanide] had an IC50 of 20 nM. In the data set with Tau-BiFC cells, the “Cell viability (% @10µM)” value turned out to be 99%. The “Human microsomes (% remaining)” value in data set [1] is 79.9 % remaining. Moreover, the “Rat microsomes (% remaining)” value in data set [2] is given as 47.7 % remaining. Also, the “CYP2D6 (% activity)” value at CYP2D6 is over 100 % activity. Besides, the “CYP3A4 (% activity)” value at CYP3A4 is given as 84.8 % activity.
In the case of `CC1CN(c2nc3ccc(NN=C(C#N)C#N)cc3o2)CCO1` (stereo not drawn) [Compound 15, (2-(2-methylmorpholino)benzo[d]oxazol-6-yl)carbonohydrazonoyl dicyanide], the midpoint of inhibition against Tau, the IC50, lay at 48 nM. The “Cell viability (% @10µM)” value with Tau-BiFC cells was found to be 100%. Moreover, the “Human microsomes (% remaining)” value in data set [1] was over 100 % remaining. In data set [2], the “Rat microsomes (% remaining)” value is reported as 60 % remaining. Besides, the “CYP2D6 (% activity)” value at CYP2D6 was over 100 % activity. Moreover, the “CYP3A4 (% activity)” value on CYP3A4 is listed as 87.3 % activity.
Molecule `CC1COCCN1c1nc2ccc(NN=C(C#N)C#N)cc2o1` (stereo not drawn) [Compound 16, (2-(3-methylmorpholino)benzo[d]oxazol-6-yl)carbonohydrazonoyl dicyanide] showed an IC50 against Tau of 49 nM. Besides, in the data set with Tau-BiFC cells, the “Cell viability (% @10µM)” value came to 100%. For the same molecule, in data set [1], the “Human microsomes (% remaining)” value was 79.8 % remaining. In addition, the “Rat microsomes (% remaining)” value in data set [2] stood at 49.6 % remaining. Besides, the “CYP2D6 (% activity)” value at CYP2D6 amounted to 92.1 % activity. For the same molecule, the “CYP3A4 (% activity)” value on CYP3A4 is on record as 96.7 % activity.
Consider `COC1CCN(c2nc3ccc(NN=C(C#N)C#N)cc3o2)CC1` [Compound 17, (2-(4-methoxypiperidin-1-yl)benzo[d]oxazol-6-yl)carbonohydrazonoyl dicyanide], for which, on Tau, the IC50 stood at 88 nM. The “Cell viability (% @10µM)” value with Tau-BiFC cells is 100%. In addition, the “Human microsomes (% remaining)” value in data set [1] was determined as 16.7 % remaining. The “Rat microsomes (% remaining)” value in data set [2] was found to be 59.3 % remaining. The “CYP2D6 (% activity)” value at CYP2D6 is listed as 89.5 % activity. Also, the “CYP3A4 (% activity)” value on CYP3A4 was 87.1 % activity.
For the molecule `CC1CN(c2nc3ccc(NN=C(C#N)C#N)cc3o2)CC(C)O1` (stereo not drawn) [Compound 18, (2-(2,6-dimethylmorpholino)benzo[d]oxazol-6-yl)carbonohydrazonoyl dicyanide], at Tau, 128 nM corresponded to half-maximal inhibition (IC50). In addition, the “Cell viability (% @10µM)” value with Tau-BiFC cells was determined as 100%. For the same molecule, the “Human microsomes (% remaining)” value in data set [1] was determined as 95.8 % remaining. Besides, in data set [2], the “Rat microsomes (% remaining)” value is 72.9 % remaining. On CYP2D6, the “CYP2D6 (% activity)” value is 97 % activity. Moreover, the “CYP3A4 (% activity)” value at CYP3A4 was 94.6 % activity.
On Tau, `N#CC(C#N)=NNc1ccc2nc(N3C4CCC3COC4)oc2c1` [Compound 20, (2-(3-oxa-8-azabicyclo[3.2.1]octan-8-yl)benzo[d]oxazol-6-yl)carbonohydrazonoyl dicyanide] had an IC50 of 11 nM. Further, in the data set on Tau-BiFC cells, the “Cell viability (% @10µM)” value was determined as 96%. Further, the “Human microsomes (% remaining)” value in data set [1] is listed as over 100 % remaining. For the same molecule, in data set [2], the “Rat microsomes (% remaining)” value came to 82.9 % remaining. Moreover, at CYP2D6, the “CYP2D6 (% activity)” value is 57.5 % activity. The “CYP3A4 (% activity)” value at CYP3A4 worked out at 55.4 % activity.
The molecule `N#CC(C#N)=NNc1ccc2nc(N3CC4CCC(C3)O4)sc2c1` [Compound 23, (2-(8-oxa-3-azabicyclo[3.2.1]octan-3-yl)benzo[d]thiazol-6-yl)carbonohydrazonoyl dicyanide] showed an IC50 against Tau of 48 nM. Also, the “Cell viability (% @10µM)” value with Tau-BiFC cells is given as 92%. In data set [1], the “Human microsomes (% remaining)” value was found to be 85.6 % remaining. In data set [2], the “Rat microsomes (% remaining)” value was 69.8 % remaining. The “CYP2D6 (% activity)” value on CYP2D6 is reported as 71.5 % activity. Moreover, the “CYP3A4 (% activity)” value at CYP3A4 is listed as 71.7 % activity.
In the case of `N#CC(C#N)=NNc1ccc2nc(N3CC4CCC(C3)O4)oc2c1` [Compound 26, (2-(8-oxa-3-azabicyclo[3.2.1]octan-3-yl)benzo[d]oxazol-6-yl)carbonohydrazonoyl dicyanide], the midpoint of inhibition on Tau, the IC50, lay at 10 nM. Also, the “Cell viability (% @10µM)” value in the data set with Tau-BiFC cells worked out at 99%. In addition, in data set [1], the “Human microsomes (% remaining)” value is reported as 96.3 % remaining. The “Rat microsomes (% remaining)” value in data set [2] turned out to be 95.1 % remaining. The “CYP2D6 (% activity)” value at CYP2D6 was found to be 82.1 % activity. Besides, the “CYP3A4 (% activity)” value on CYP3A4 worked out at 81.3 % activity.
Regarding `CC(C)N1CCN(c2nc3ccc(NN=C(C#N)C#N)cc3o2)CC1` [Compound 28, (2-(4-isopropylpiperazin-1-yl)benzo[d]oxazol-6-yl)carbonohydrazonoyl dicyanide], the IC50 on Tau came to 16 nM. In addition, the “Cell viability (% @10µM)” value with Tau-BiFC cells worked out at 99%. Also, the “Human microsomes (% remaining)” value in data set [1] worked out at 11.7 % remaining. In addition, in data set [2], the “Rat microsomes (% remaining)” value was found to be 50.7 % remaining. Also, the “CYP2D6 (% activity)” value on CYP2D6 is 78 % activity. The “CYP3A4 (% activity)” value on CYP3A4 is 87.8 % activity.
As for `CC(=O)N1CCN(c2nc3ccc(NN=C(C#N)C#N)cc3s2)CC1` [Compound 30, (2-(4-acetylpiperazin-1-yl)benzo[d]thiazol-6-yl)carbonohydrazonoyl dicyanide], inhibition against Tau was half-maximal at 60 nM (IC50). The “Cell viability (% @10µM)” value in the data set with Tau-BiFC cells was 99%. Besides, the “Human microsomes (% remaining)” value in data set [1] is over 100 % remaining. The “Rat microsomes (% remaining)” value in data set [2] is 91.9 % remaining. In addition, on CYP2D6, the “CYP2D6 (% activity)” value came out at 88.9 % activity. The “CYP3A4 (% activity)” value on CYP3A4 stood at 74.6 % activity.
Turning to `CC(=O)N1CCN(c2nc3ccc(NN=C(C#N)C#N)cc3o2)CC1` [Compound 31, (2-(4-acetylpiperazin-1-yl)benzo[d]oxazol-6-yl)carbonohydrazonoyl dicyanide], the midpoint of inhibition against Tau, the IC50, lay at 88 nM. For the same molecule, in the data set with Tau-BiFC cells, the “Cell viability (% @10µM)” value was 100%. Further, in data set [1], the “Human microsomes (% remaining)” value was 99.9 % remaining. Further, in data set [2], the “Rat microsomes (% remaining)” value is 88.3 % remaining. Further, the “CYP2D6 (% activity)” value at CYP2D6 is 93.3 % activity. In addition, on CYP3A4, the “CYP3A4 (% activity)” value amounted to 88.3 % activity.
